Results reported in patent US12472182B2, “Compositions comprising regulatory t cells and methods of making and using the same” (Cellenkos, Inc., priority 2019, dated 2025).

Key:
[1] = system: interferon (IFN)-gamma released by SLE-PBMC; test: IFN-gamma release by pathogenic lupus cells; type: cell-based, human; settings: control, non-specific inflammatory stimulus
Source text: FIG. 32 is a bar graph depicting the amount of interferon (IFN)-gamma released by pathogenic lupus cells in the presence or absence of combinations of (1) activated Treg cells; (2) ruxolitinib; and/or (3) camptothecin. Rux=ruxolitinib. SLE-PBMC=peripheral blood mononuclear cells derived from subjects with systemic lupus erythematosus. D6=Day 6.

[2] = system: xenogeneic mouse graft versus host disease (GVHD) model; settings: in vivo
Method: FIG. 33 depicts a schematic for treatment of a xenogeneic mouse graft versus host disease (GVHD) model with a ruxolitinib and activated Treg cells regimen. PBMC=peripheral blood mononuclear cells.
A xenogeneic mouse graft versus host disease (GVHD) model was treated with a ruxolitinib and activated CB Treg cells regimen, as depicted in FIG. 33. NSG mice underwent sublethal irradiation on day −1 followed by injection of 1×10^7 donor peripheral blood (PB) mononuclear cells (MNCs) on day 0. Oral ruxolitinib at 1 mg daily was fed continuously to the mice in the presence or absence of 1×10^7 CB Treg cells, tagged with CellTrace™ Violet dye (ThermoFisher), administered on days +4, +7, +11, +18. Mice were followed every other day for weight, GVHD score and survival. Serial blood draws were performed to analyze for cell compartment and cytokine assays.

SMILES: CC[C@@]1(O)C(=O)OCc2c1cc1n(c2=O)Cc2cc3ccccc3nc2-1 [Camptothecin]
- IFNγ secretion from CB Treg cells [1]: does not increase IFNγ secretion

SMILES: N#CC[C@H](C1CCCC1)n1cc(-c2ncnc3[nH]ccc23)cn1 [ruxolitinib]
- CB Treg persistence [2]: improved CB Treg persistence
